Laboratory results published in patent US10588280B2, “Aided delivery of plant treatment agents” (Monsanto Technology LLC, priority 2014, dated 2020).

Experiments:
[1] = tested on: haploid corn seedlings (SAM); assay: Example 3: serial (submerged then unsubmerged) centrifugation with colchicine, survival and doubling success; format: in vivo; conditions: for DE / Fert. Success / Initial Survival / Poll. Success: 1000 ppm colchicine, submerged 50 g 3 min then unsubmerged 335 g 3 min
Source text: Seeds of 5 different F1 hybrid-derived haploid corn lines were randomly-selected and germinated in a greenhouse. The resulting seedlings were removed from soil or growth media at the V1-V3 growth stage and the soil or growth media rinsed from the plants with water. Seedlings were then aligned and assembled along with several rods in a bundled PCS similar to what is shown in FIG. 9 and a plant treatment solution comprising 1000 ppm colchicine was poured into the container such that the solution submerged the SAM of each plant and then the entire sample was centrifuged at 50 g for 3 min while the SAMs remained submerged in the plant treatment agent.
Following the first centrifugation, the plant treatment solution was decanted and the seedlings subjected to an unsubmerged centrifugation at 335 g for 3 min.
Following the second centrifugation, the plants were removed from the centrifugation container and rinsed with water to remove any remaining colchicine solution, and then recovered and tended in a light, humidity, and temperature-controlled greenhouse for several days before being transplanted to a nursery greenhouse.
The control sample received no colchicine exposure, but was otherwise handled identically as the experimental samples. During the subsequent growth of the plants, the initial survival, pollination success, fertilization success, final survival, and doubling efficiency was determined within each sample as described in Example 2.

seedlings = conditions: cited from earlier work

COc1cc2c(c(OC)c1OC)-c1ccc(OC)c(=O)cc1[C@@H](NC(C)=O)CC2 [colchicine]
DE ([1]; Ave: of five lines): 72%
Fert. Success ([1]; Ave: of five lines): 94%
Initial Survival ([1]; Ave: of five lines): 93%
Poll. Success ([1]; Ave: of five lines): 85%
DE ([1]; line F1004): 57%
Fert. Success ([1]; line F1004): 100%
Initial Survival ([1]; line F1004): 93%
Poll. Success ([1]; line F1004): 62%
DE ([1]; line F1045): 75%
Fert. Success ([1]; line F1045): 100%
Initial Survival ([1]; line F1045): 100%
Poll. Success ([1]; line F1045): 75%
DE ([1]; line F1095): 80%
Fert. Success ([1]; line F1095): 92%
Initial Survival ([1]; line F1095): 100%
Poll. Success ([1]; line F1095): 87%
DE ([1]; line F1118): 60%
Fert. Success ([1]; line F1118): 86%
Initial Survival ([1]; line F1118): 70%
Poll. Success ([1]; line F1118): 100%
DE ([1]; line F1900): 90%
Fert. Success ([1]; line F1900): 90%
Initial Survival ([1]; line F1900): 100%
Poll. Success ([1]; line F1900): 100%
individuals that produced pollen and silks ([1]; minimum over all five inbred samples receiving the experimental treatment): at least 62%
increase in overall DE as compared to controls ([1]; samples receiving serial centrifugation with 1000 ppm colchicine vs controls): 67%
average success rate (seedlings; Eder and Chalyk (2002), procedure of Deimling et al.: 0.06% colchicine and DMSO, 12 hours, dark room, range of genotypes): ~50%
doubling rate (seedlings; Gayen et al. (1994): coleoptile tips removed, extended (6+ hours) soak, colchicine 0.1% or less): 18.05%
